Measurements published in US20230295157A1, “3-(1H-IMIDAZOL-2-YL)-2,3,8,8A-TETRAHYDROINDOLIZIN-5(1H)-ONE DERIVATIVES USEFUL AS FACTOR XIA INHIBITORS” (JANSSEN PHARMACEUTICA NV, priority 2020, published 2023).
Read-outs that look alike come from different tables or passages of the source.

Experiments:
human plasma kallikrein = human plasma kallikrein (Homo sapiens (Human), UniProt P03952); test: Kallikrein inhibition assay (FLINT) utilizing a quenched AMC peptide substrate; format: biochemical; details: 30 min preincubation, kinetic reads over 30 min, Z-Gly-Pro-Arg-AMC substrate 50 μM; read-out: Kallikrein Kin Inh IC50
human plasma kallikrein, sequence (P03952 391-638): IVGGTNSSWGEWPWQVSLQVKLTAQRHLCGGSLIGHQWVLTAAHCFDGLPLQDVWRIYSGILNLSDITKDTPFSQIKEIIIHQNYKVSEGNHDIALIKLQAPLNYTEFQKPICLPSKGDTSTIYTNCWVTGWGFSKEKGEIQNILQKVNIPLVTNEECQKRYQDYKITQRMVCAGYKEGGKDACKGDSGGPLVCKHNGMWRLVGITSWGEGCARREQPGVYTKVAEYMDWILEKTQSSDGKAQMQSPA
human plasma kallikrein, sequence (P03952 20-390 partner): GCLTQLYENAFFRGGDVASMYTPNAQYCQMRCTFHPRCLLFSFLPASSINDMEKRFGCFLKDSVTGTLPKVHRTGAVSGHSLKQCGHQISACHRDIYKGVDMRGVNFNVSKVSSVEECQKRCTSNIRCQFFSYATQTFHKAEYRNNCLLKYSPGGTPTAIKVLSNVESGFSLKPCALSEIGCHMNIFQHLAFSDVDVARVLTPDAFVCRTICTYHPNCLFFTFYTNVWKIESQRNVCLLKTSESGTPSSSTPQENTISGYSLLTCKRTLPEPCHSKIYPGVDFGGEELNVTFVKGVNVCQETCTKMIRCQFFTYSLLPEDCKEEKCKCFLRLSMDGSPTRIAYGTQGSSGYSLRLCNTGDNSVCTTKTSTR
Summary of the method: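 Enzyme (2 nM final) pre-incubated 30 min at room temperature with compound (11-point, 3-fold, top 1 μM, 2% DMSO), then 50 μM Z-Gly-Pro-Arg-AMC added in Tris pH 7.5 buffer. Kinetic fluorescence 340/440 nm every 5 min over 30 min; IC50 from 4-parameter logistic fit.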

Factor XIa = Factor XIa (Homo sapiens (Human), UniProt P03951); test: Factor XIa inhibition assay (FLINT) utilizing a fluorophore-quencher pair peptide substrate; format: biochemical; details: 30 min preincubation, kinetic reads over 30 min, read-out: FXIa Kin Inh IC50
Factor XIa, sequence (P03951 388-625): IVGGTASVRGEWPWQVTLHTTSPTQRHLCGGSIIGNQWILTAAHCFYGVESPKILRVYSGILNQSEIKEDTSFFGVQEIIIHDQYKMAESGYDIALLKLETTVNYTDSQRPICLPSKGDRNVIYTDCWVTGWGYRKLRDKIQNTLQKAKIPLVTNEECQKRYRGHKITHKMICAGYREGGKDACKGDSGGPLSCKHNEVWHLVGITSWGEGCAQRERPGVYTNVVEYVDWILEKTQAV
Factor XIa, sequence (P03951 19-387 partner): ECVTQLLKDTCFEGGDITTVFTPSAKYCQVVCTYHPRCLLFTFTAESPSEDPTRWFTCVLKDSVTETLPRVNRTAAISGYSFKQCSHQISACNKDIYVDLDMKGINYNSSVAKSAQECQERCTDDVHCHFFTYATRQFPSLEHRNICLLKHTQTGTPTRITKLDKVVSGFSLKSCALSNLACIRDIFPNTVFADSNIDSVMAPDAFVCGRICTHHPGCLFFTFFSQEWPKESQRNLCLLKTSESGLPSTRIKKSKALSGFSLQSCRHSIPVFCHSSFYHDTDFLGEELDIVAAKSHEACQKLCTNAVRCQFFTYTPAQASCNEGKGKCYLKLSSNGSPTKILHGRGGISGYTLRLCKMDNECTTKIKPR
Summary of the method: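 FXIa ([…]) preincubated 30 min with compound (11-point 3-fold dilution, top 100 nM, 2% DMSO), then 15 μM quenched FXI Arg146-based peptide added; Tris pH 7.5, CaCl2, BSA, CHAPS. Fluorescence 485/520 nm read kinetically every 5 min over 30 min at RT; IC50 by 4-parameter fit.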

[1] = 5Fam-KLTRAETV-K5Tamra substrate 15 μM
[2] = 5Fam-[…]-K5Tamra substrate 15 μM

Structure (SMILES) | IC50 (human plasma kallikrein) [nM] | IC50 (Factor XIa; [1]) [nM] | IC50 (Factor XIa; [2]) [nM]
C[C@@H](O)c1nccc(-c2cnc([C@@H]3CC[C@@H]4CC(c5c(-n6cnnn6)ccc(Cl)c5F)=CC(=O)N43)[nH]2)c1F [Example 185, (3S,8aR)-7-(3-chloro-2-fluoro-6-(1H-tetrazol-1-yl)phenyl)-3-(5-(3-fluoro-2-((R)-1-hydroxyethyl)pyridin-4-yl)-1H-imidazol-2-yl)-2,3,8,8a-tetrahydroindolizin-5(1H)-one] | 33.9 | 6.5 | –
C[C@H](O)c1nccc(-c2cnc([C@@H]3CC[C@@H]4CC(c5c(-n6cnnn6)ccc(Cl)c5F)=CC(=O)N43)[nH]2)c1F [Example 186, (3S,8aR)-7-(3-chloro-2-fluoro-6-(1H-tetrazol-1-yl)phenyl)-3-(5-(3-fluoro-2-((S)-1-hydroxyethyl)pyridin-4-yl)-1H-imidazol-2-yl)-2,3,8,8a-tetrahydroindolizin-5(1H)-one] | 35.1 | 4.6 | –
O=C1C=C(c2c(-n3cnnn3)ccc(Cl)c2F)C[C@H]2CC[C@H](c3ncc(-c4ccnc(N5CCC[C@H](O)C5)c4F)[nH]3)N12 [Example 188, (3R,8aR)-7-(3-chloro-2-fluoro-6-(1H-tetrazol-1-yl)phenyl)-3-(5-(3-fluoro-2-((S)-3-hydroxypiperidin-1-yl)pyridin-4-yl)-1H-imidazol-2-yl)-2,3,8,8a-tetrahydroindolizin-5(1H)-one] | 7.8 | 17.2 | –
[2H]C([2H])(O)c1nccc(-c2cnc([C@@H]3CCC4CC(c5c(-n6cnnn6)ccc(Cl)c5F)=CC(=O)N43)[nH]2)c1Cl (stereo partly drawn) [Example 189, (3S)-3-(5-(3-chloro-2-(hydroxymethyl-d2)pyridin-4-yl)-1H-imidazol-2-yl)-7-(3-chloro-2-fluoro-6-(1H-tetrazol-1-yl)phenyl)-2,3,8,8a-tetrahydroindolizin-5(1H)-one] | 16.7 | – | 1.8
CC(C)(O)COc1nccc(-c2c[nH]c([C@@H]3CC[C@@H]4CC(c5c(-n6cnnn6)ccc(Cl)c5F)=CC(=O)N43)n2)c1F [Example 190] | 9.4 | 1.2 | –
CC(C)(O)COc1nccc(-c2c[nH]c([C@@H]3CC[C@@H]4CC(c5c(-n6cc(C(F)(F)F)nn6)ccc(Cl)c5F)=CC(=O)N43)n2)c1F [Example 191, (3S,8aR)-7-(3-Chloro-2-fluoro-6-(4-(trifluoromethyl)-1H-1,2,3-triazol-1-yl)phenyl)-3-(4-(3-fluoro-2-(2-hydroxy-2-methylpropoxy)pyridin-4-yl)-1H-imidazol-2-yl)-2,3,8,8a-tetrahydroindolizin-5(1H)-one] | 34.3 | – | 3.8
CS(=O)(=O)NC(=O)c1sc(-c2c[nH]c(C3CC[C@@H]4CC(c5c(-n6cc(C(F)(F)F)nn6)ccc(Cl)c5F)=CC(=O)N34)n2)cc1F (stereo partly drawn) [Example 192, 5-(2-((8aR)-7-(3-chloro-2-fluoro-6-(4-(trifluoromethyl)-1H-1,2,3-triazol-1-yl)phenyl)-5-oxo-1,2,3,5,8,8a-hexahydroindolizin-3-yl)-1H-imidazol-4-yl)-3-fluoro-N-(methylsulfonyl)thiophene-2-carboxamide] | 29.5 | – | 5.4
O=C(O)c1ccc(-c2cnc([C@@H]3CCC4CC(c5c(-n6cc(Cl)nn6)ccc(Cl)c5F)=CC(=O)N43)[nH]2)s1 (stereo partly drawn) [Example 193, 5-(2-((3S)-7-(3-chloro-6-(4-chloro-1H-1,2,3-triazol-1-yl)-2-fluorophenyl)-5-oxo-1,2,3,5,8,8a-hexahydroindolizin-3-yl)-1H-imidazol-4-yl)thiophene-2-carboxylic acid] | 14.3 | 0.4 | –
NC(=O)c1ccc(-c2cnc([C@@H]3CC[C@@H]4CC(c5c(-n6cnnn6)ccc(Cl)c5F)=CC(=O)N43)[nH]2)c(F)c1 [Example 196, 4-(2-((3S,8aR)-7-(3-chloro-2-fluoro-6-(1H-tetrazol-1-yl)phenyl)-5-oxo-1,2,3,5,8,8a-hexahydroindolizin-3-yl)-1H-imidazol-4-yl)-3-fluorobenzamide] | 3.4 | 0.6 | –
NC(=O)c1ccc(-c2c[nH]c([C@@H]3CC[C@H]4CC(c5c(-n6cnnn6)ccc(Cl)c5F)=CC(=O)N43)n2)cc1F [Example 198, 4-(2-((3S,8aS)-7-(3-chloro-2-fluoro-6-(1H-tetrazol-1-yl)phenyl)-5-oxo-1,2,3,5,8,8a-hexahydroindolizin-3-yl)-1H-imidazol-4-yl)-2-fluorobenzamide] | 14.3 | – | 30.5
O=C1C=C(c2c(-n3cnnn3)ccc(Cl)c2F)CC2CC[C@@H](c3nc(Cl)c(-c4cc[nH]c(=O)c4)[nH]3)N12 (stereo partly drawn) [Example 199, (3S)-7-(3-chloro-2-fluoro-6-(1H-tetrazol-1-yl)phenyl)-3-(4 chloro-5-(2-oxo-1,2-dihydropyridin-4-yl)-1H-imidazol-2-yl)-2,3,8,8a-tetrahydroindolizin-5(1H)-one] | 15.6 | 1.3 | –
O=C1C=C(c2c(-n3cc(Cl)nn3)ccc(Cl)c2F)C[C@H]2CC[C@@H](c3nc(-c4cc[nH]c(=O)c4F)c[nH]3)N12 [Example 200, (3S,8aR)-7-(3-chloro-6-(4-chloro-1H-1,2,3-triazol-1-yl)-2-fluorophenyl)-3-(4-(3-fluoro-2-oxo-1,2-dihydropyridin-4-yl)-1H-imidazol-2-yl)-2,3,8,8a-tetrahydroindolizin-5(1H)-one] | 24.4 | 4.4 | –
Nc1noc2ccc(-c3cnc([C@@H]4CC[C@@H]5CC(c6c(-n7cnnn7)ccc(Cl)c6F)=CC(=O)N54)[nH]3)cc12 [Example 201, (3S,8aR)-3-(5-(3-aminobenzo[d]isoxazol-5-yl)-1H-imidazol-2-yl)-7-(3-chloro-2-fluoro-6-(1H-tetrazol-1-yl)phenyl)-2,3,8,8a-tetrahydroindolizin-5(1H)-one] | 6.9 | 9.1 | –
NC(=O)c1ccc(-c2nc([C@@H]3CC[C@H]4CC(c5c(-n6cc(C(F)(F)F)nn6)ccc(Cl)c5F)=CC(=O)N43)[nH]c2Cl)s1 [Example 202, 5-(5-Chloro-2-((3S,8aS)-7-(3-chloro-2-fluoro-6-(4-(trifluoromethyl)-1H-1,2,3-triazol-1-yl)phenyl)-5-oxo-1,2,3,5,8,8a-hexahydroindolizin-3-yl)-1H-imidazol-4-yl)thiophene-2-carboxamide] | 1.5 | 0.6 | –
NC(=O)c1ccc(-c2nc([C@@H]3CC[C@@H]4CC(c5c(-n6cc(C(F)(F)F)nn6)ccc(Cl)c5F)=CC(=O)N43)[nH]c2Cl)s1 [Example 203, 5-(5-Chloro-2-((3S,8aR)-7-(3-chloro-2-fluoro-6-(4-(trifluoromethyl)-1H-1,2,3-triazol-1-yl)phenyl)-5-oxo-1,2,3,5,8,8a-hexahydroindolizin-3-yl)-1H-imidazol-4-yl)thiophene-2-carboxamide] | 2.5 | 0.9 | –
NC(=O)c1cc(-c2cnc([C@@H]3CC[C@@H]4CC(c5c(-n6cc(C(F)(F)F)nn6)ccc(Cl)c5F)=CC(=O)N43)[nH]2)ccn1 [Example 204, 4-(2-((3S,8aR)-7-(3-Chloro-2-fluoro-6-(4-(trifluoromethyl)-1H-1,2,3-triazol-1-yl)phenyl)-5-oxo-1,2,3,5,8,8a-hexahydroindolizin-3-yl)-1H-imidazol-5-yl)picolinamide] | 24.5 | 29.1 | –
NC(=O)c1ncc(-c2c[nH]c([C@@H]3CC[C@@H]4CC(c5c(-n6cnnn6)ccc(Cl)c5F)=CC(=O)N43)n2)s1 [Example 205, 5-(2-((3S,8aR)-7-(3-Chloro-2-fluoro-6-(1H-tetrazol-1-yl)phenyl)-5-oxo-1,2,3,5,8,8a-hexahydroindolizin-3-yl)-1H-imidazol-4-yl)thiazole-2-carboxamide] | 12.5 | 3.3 | –
NC(=O)c1ccc(-c2cnc([C@@H]3CC[C@@H]4CC(c5c(-n6cc(Cl)nn6)ccc(Cl)c5F)=CC(=O)N43)[nH]2)s1 [Example 207, 5-(2-((3S,8aR)-7-(3-Chloro-6-(4-chloro-1H-1,2,3-triazol-1-yl)-2-fluorophenyl)-5-oxo-1,2,3,5,8,8a-hexahydroindolizin-3-yl)-1H-imidazol-5-yl)thiophene-2-carboxamide] | 7.7 | 2.5 | –
NC(=O)c1ncc(-c2cnc([C@@H]3CC[C@@H]4CC(c5c(-n6cc(Cl)nn6)ccc(Cl)c5F)=CC(=O)N43)[nH]2)s1 [Example 208, 5-(2-((3S,8aR)-7-(3-Chloro-6-(4-chloro-1H-1,2,3-triazol-1-yl)-2-fluorophenyl)-5-oxo-1,2,3,5,8,8a-hexahydroindolizin-3-yl)-1H-imidazol-5-yl)thiazole-2-carboxamide] | 7.8 | 4.6 | –
NC(=O)c1ccc(-c2nc([C@@H]3CC[C@@H]4CC(c5c(-n6cnnn6)ccc(Cl)c5F)=CC(=O)N43)[nH]c2Cl)s1 [Example 211, 5-(5-Chloro-2-((3S,8aR)-7-(3-chloro-2-fluoro-6-(1H-tetrazol-1-yl)phenyl)-5-oxo-1,2,3,5,8,8a-hexahydroindolizin-3-yl)-1H-imidazol-4-yl)thiophene-2-carboxamide] | 0.8 | – | 0.2
NC(=O)c1scc(-c2c[nH]c([C@@H]3CC[C@@H]4CC(c5c(-n6cnnn6)ccc(Cl)c5F)=CC(=O)N43)n2)c1F [Example 214, 4-(2-((3S,8aR)-7-(3-Chloro-2-fluoro-6-(1H-tetrazol-1-yl)phenyl)-5-oxo-1,2,3,5,8,8a-hexahydroindolizin-3-yl)-1H-imidazol-4-yl)-3-fluorothiophene-2-carboxamide] | 1.7 | 1.4 | –
